{"source": "patent US20040106644A1", "about": "“Composition for treatment of night sight problems(halos, comas and glare) after refractive surgery, intra ocular lens implant after lensectomy or intraocular implant in phakic patients comprising aceclidine employed at low concentrations” (priority 2001, published 2004)", "key": {"healthy people": {"test_system": "healthy people", "assay": "pupillary diameter after instillation in healthy people", "format": "in vivo, human", "conditions": "ophthalmic composition with aceclidine in very low concentrations, for four to six hours (summary statement)", "description": "The two ophthalmic compositions, I and II dilution, were administered firstly to a group of healthy people: one eye was treated with the I dilution composition (0.016%), the second eye with the II dilution composition (0.032%), measuring the pupillary diameter in the same light conditions at 30 minutes, 1-2-3-4-5-6 hours after the first instillation."}, "[1]": {"test_system": "patients who underwent refractive surgery", "assay": "double-masked randomized clinical trial on night sight problems (halos, coma, glare) after refractive surgery", "format": "in vivo, human", "description": "A double-masked randomized clinical trial with 14 patients (27 eyes) has been organized by dividing the patients in three different groups: 8 patients were treated with placebo, 10 patients were treated with a first ophthalmic composition (I dilution), 9 patients were treated with a second ophthalmic composition (II dilution).\nThe patients belonging to this trial had to go through an ophthalmic examination: of the haze grading and of natural and corrected visual acuity, intra ocular pressure (IOP), pupillometry in mesopic conditions with split lamp and examination of corneal maps. The anamnestic data about the surgical operation were collected: the refractive surgery technique employed (PRK/LASIK), the date of the surgical operation, data about the corrected optical zone and the ametropy kind. The night sight problems had to be stable for at least three months after the surgical operation for the patient to be included in the trial.\nThe patients had to identify the image they perceived before and during the pharmacological treatment, with follow-up examinations fixed every 15-30 days. At the end of the clinical trial the patients had to provide information about the efficacy and duration (in terms of hours) of the treatment, onset time of the effect, changes of the visual capabilities and side effects, if any.\nThe ophthalmic compositions were prepared according to the following procedure:\nI dilution, 4 IU of aceclidine 2% were diluted in 5 mL of hyaluronic acid (0.200 g/100 mL)\nII dilution, 8 IU of aceclidine 2% were diluted in 5 mL of hyaluronic acid (0.200 g/100 mL)\nPlacebo consisted in 5 mL of hyaluronic acid (0.200 g/100 mL).\nThe three ophthalmic compositions (I dilution, II dilution and placebo) were administered to the 14 patients belonging to the clinical trial in a blind way."}, "[2]": {"conditions": "patients treated with refractive surgery, aceclidine in very low concentrations (summary statement)"}}}
{"smiles": "CC(=O)OC1CN2CCC1CC2", "note": "(stereo not drawn) [aceclidine, 3-acetoxyquinuclidine]", "values": [{"measurement": "pupil diameter reduction", "setting": "healthy people", "result": "2-3 mm"}, {"measurement": "side effects in the effective concentration range", "setting": "[1]; aceclidine 0.016% to 0.040% of total weight", "result": "no relevant side effects are detectable"}, {"measurement": "duration of action after instillation", "setting": "[1]; aceclidine 0.016% to 0.040%, instilled 10-20 minutes before need (summary statement)", "result": "4 to 6", "unit": "h"}, {"measurement": "duration of light, transitory conjunctival hyperemia", "setting": "[1]; [2]", "result": "5 to 10", "unit": "min"}, {"measurement": "headache or sight reduction", "setting": "[1]; [2]", "result": "no headache or sight reduction"}, {"measurement": "improvement of halos, coma and glare", "setting": "[1]; [2]", "result": "statistically significant improvement"}]}
